The source of these data is ChEMBL document CHEMBL3044779, “The action of herbicides on fatty acid biosynthesis and elongation in barley and cucumber” (Pest Manag Sci, 2010).

In experiment [1] the test system is Hordeum vulgare. Kind of experiment: Inhibition of fatty acid synthesis in Hordeum vulgare (barley) using [14C]malonate assessed as [14C]-labeled 22C fatty acid level at 70 uM after 3 hr by liquid scintillation counting (reference value: 34.7 +/- 2.4%). The experiment is classed as functional. On the set-up: scale not given: the % may be the effect or the level left.

The subject of experiment [2] is Hordeum vulgare. Nature of the experiment: Inhibition of fatty acid synthesis in Hordeum vulgare (barley) using [14C]acetate assessed as reduction in [14C]-labeled 24C fatty acid level at 7 uM after 3 hr by liquid scintillation counting. The format is functional, organism-based.
The test system of experiment [3] is Cucumis sativus. Kind of experiment: Inhibition of fatty acid synthesis in Cucumis sativus (cucumber) assessed as inhibition of [14C]malonate incoporation in total fatty acids at 70 uM measured as total disintegration per g of fresh weight after 3 hr by liquid scintillation counting (reference value: 16.3 +/- 1.1 dpm x 10^6 g'1 fresh wt). The format is functional.

Experiment [4] deals with Cucumis sativus. Kind of experiment: Inhibition of fatty acid synthesis in Cucumis sativus (cucumber) using [14C]malonate assessed as reduction in [14C]-labeled 22C fatty acid level at 70 uM after 3 hr by liquid scintillation counting relative to control. The experiment is classed as functional, organism-based.
Experiment [5] relates to Hordeum vulgare. Kind of experiment: Inhibition of fatty acid synthesis in Hordeum vulgare (barley) using [14C]malonate assessed as [14C]-labeled 18C fatty acid level at 70 uM after 3 hr by liquid scintillation counting (reference value: 14.4 +/- 6.3%). Set-up: scale not given: the % may be the effect or the level left. The format is functional.
Experiment [6] relates to Hordeum vulgare. Kind of experiment: Inhibition of fatty acid synthesis in Hordeum vulgare (barley) assessed as inhibition of [14C]malonate incoporation in total fatty acids at 70 uM measured as total disintegration per g of fresh weight after 3 hr by liquid scintillation counting (reference value: 5.2 +/- 0.9 dpm x 10^6 g'1 fresh wt). The experiment is classed as functional.

Experiment [7] concerns Hordeum vulgare. Kind of experiment: Inhibition of fatty acid synthesis in Hordeum vulgare (barley) assessed as inhibition of [14C]acetate incoporation in total fatty acids at 7 uM measured as total disintegration per g of fresh weight after 3 hr by liquid scintillation counting (reference value: 5.8 +/- 1.6 dpm x 10^6 g'1 fresh wt). The experiment is classed as functional.

Experiment [8] deals with Cucumis sativus. Kind of experiment: Inhibition of fatty acid synthesis in Cucumis sativus (cucumber) using [14C]acetate assessed as [14C]-labeled 18C fatty acid level at 7 uM after 3 hr by liquid scintillation counting (reference value: 33.5 +/- 1.5%). The experiment is classed as functional. On the set-up: scale not given: the % may be the effect or the level left.
Experiment [9] has as its system Hordeum vulgare. Kind of experiment: Inhibition of fatty acid synthesis in Hordeum vulgare (barley) using [14C]acetate assessed as [14C]-labeled 20C fatty acid level at 7 uM after 3 hr by liquid scintillation counting (reference value: 2.1 +/- 0.4%). Set-up: scale not given: the % may be the effect or the level left. The experiment is classed as functional.
For experiment [10], the system named is Cucumis sativus. Nature of the experiment: Inhibition of fatty acid synthesis in Cucumis sativus (cucumber) using [14C]malonate assessed as [14C]-labeled 20C fatty acid level at 70 uM after 3 hr by liquid scintillation counting (reference value: 11.7 +/- 2%). The experiment is classed as functional. Set-up: scale not given: the % may be the effect or the level left.

Experiment [11] deals with Cucumis sativus. Nature of the experiment: Inhibition of fatty acid synthesis in […] using [14C]acetate assessed as reduction in [14C]-labeled 22C fatty acid level at 7 uM after 3 hr by liquid scintillation counting. The experiment is classed as functional, organism-based.
Experiment [12] has as its system Hordeum vulgare. Nature of the experiment: Inhibition of fatty acid synthesis in Hordeum vulgare (barley) using [14C]acetate assessed as [14C]-labeled 18C fatty acid level at 7 uM after 3 hr by liquid scintillation counting (reference value: 57 +/- 0.9%). The format is functional. Set-up: scale not given: the % may be the effect or the level left.
Experiment [13] deals with Hordeum vulgare. Kind of experiment: Inhibition of fatty acid synthesis in Hordeum vulgare (barley) using [14C]malonate assessed as reduction in [14C]-labeled 24C fatty acid level at 70 uM after 3 hr by liquid scintillation counting relative to control. The format is functional, organism-based.
Experiment [14] deals with Cucumis sativus. Nature of the experiment: Inhibition of fatty acid synthesis in Cucumis sativus (cucumber) using [14C]acetate assessed as [14C]-labeled 16C fatty acid level at 7 uM after 3 hr by liquid scintillation counting (reference value: 27.6 +/- 5.1%). The format is functional. On the set-up: scale not given: the % may be the effect or the level left.
In experiment [15] the test system is Cucumis sativus. Kind of experiment: Inhibition of fatty acid synthesis in Cucumis sativus (cucumber) using [14C]malonate assessed as [14C]-labeled 16C fatty acid level at 70 uM after 3 hr by liquid scintillation counting (reference value: 5.1 +/- 0.9%). The experiment is classed as functional. On the set-up: scale not given: the % may be the effect or the level left.

The subject of experiment [16] is Hordeum vulgare. Kind of experiment: Inhibition of fatty acid synthesis in Hordeum vulgare (barley) using [14C]malonate assessed as reduction in [14C]-labeled 26C fatty acid level at 70 uM after 3 hr by liquid scintillation counting relative to control. The format is functional, organism-based.
Experiment [17] has as its system Cucumis sativus. Kind of experiment: Inhibition of fatty acid synthesis in Cucumis sativus (cucumber) assessed as inhibition of [14C]acetate incoporation in total fatty acids at 7 uM measured as total disintegration per g of fresh weight after 3 hr by liquid scintillation counting (reference value: 4.4 +/- 1 dpm x 10^6 g'1 fresh wt). The experiment is classed as functional.

In experiment [18] the test system is Cucumis sativus. Nature of the experiment: Inhibition of fatty acid synthesis in Cucumis sativus (cucumber) using [14C]malonate assessed as [14C]-labeled 18C fatty acid level at 70 uM after 3 hr by liquid scintillation counting (reference value: 14.3 +/- 2%). The experiment is classed as functional. On the set-up: scale not given: the % may be the effect or the level left.

In experiment [19] the test system is Cucumis sativus. Nature of the experiment: Inhibition of fatty acid synthesis in Cucumis sativus (cucumber) using [14C]malonate assessed as reduction in [14C]-labeled 24C fatty acid level at 70 uM after 3 hr by liquid scintillation counting relative to control. The format is functional, organism-based.
Experiment [20] relates to Hordeum vulgare. Nature of the experiment: Inhibition of fatty acid synthesis in Hordeum vulgare (barley) using [14C]acetate assessed as reduction in [14C]-labeled 22C fatty acid level at 7 uM after 3 hr by liquid scintillation counting. The experiment is classed as functional, organism-based.
Experiment [21] has as its system Hordeum vulgare. Kind of experiment: Inhibition of fatty acid synthesis in Hordeum vulgare (barley) using [14C]malonate assessed as reduction in [14C]-labeled 20C fatty acid level at 70 uM after 3 hr by liquid scintillation counting relative to control. The format is functional, organism-based.
For experiment [22], the system named is Hordeum vulgare. Kind of experiment: Inhibition of fatty acid synthesis in Hordeum vulgare (barley) using [14C]malonate assessed as [14C]-labeled 16C fatty acid level at 70 uM after 3 hr by liquid scintillation counting (reference value: 3.3 +/- 0.9%). The format is functional. On the set-up: scale not given: the % may be the effect or the level left.
Experiment [23] has as its system Cucumis sativus. Nature of the experiment: Inhibition of fatty acid synthesis in Cucumis sativus (cucumber) using [14C]acetate assessed as reduction in [14C]-labeled 20C fatty acid level at 7 uM after 3 hr by liquid scintillation counting relative to control. The format is functional, organism-based.
Experiment [24] has as its system Hordeum vulgare. Nature of the experiment: Inhibition of fatty acid synthesis in Hordeum vulgare (barley) using [14C]acetate assessed as [14C]-labeled 16C fatty acid level at 7 uM after 3 hr by liquid scintillation counting (reference value: 30.6 +/- 0.2%). The experiment is classed as functional. Set-up: scale not given: the % may be the effect or the level left.

Activity calls are given as the source filed them. The calls are words filed in the database; no cut-off is given here.

On to `CCN(CC)C(=O)n1cnc(S(=O)(=O)c2c(C)cc(C)cc2C)n1` [CAFENSTROLE], for which the Activity stood at 14.7% in the experiment with Hordeum vulgare [1]; 9.4 ×10⁶ dpm in the experiment on Cucumis sativus [3]; 65.4% in the experiment with Hordeum vulgare [5]; 2.7 ×10⁶ dpm with Hordeum vulgare [6]; 5.1 ×10⁶ dpm with Hordeum vulgare [7]; 39.6% in the experiment with Cucumis sativus [8]. In addition, the Activity came out at 2.2% with Hordeum vulgare [9]; 8.4% in the experiment with Cucumis sativus [10]; 66.1% in the experiment with Hordeum vulgare [12]; 60.4% in the experiment on Cucumis sativus [14]; 20.4% in the experiment with Cucumis sativus [15]; 2.5 ×10⁶ dpm in the experiment with Cucumis sativus [17]. The Activity stood at 71.3% with Cucumis sativus [18], 10% in the experiment with Hordeum vulgare [22] and 32.4% in the experiment with Hordeum vulgare [24]. For the same compound, the inhibition result with Hordeum vulgare [2], in the experiment with Cucumis sativus [4], in the experiment with Cucumis sativus [11], in the experiment with Hordeum vulgare [13], in the experiment on Hordeum vulgare [16] and in the experiment with Cucumis sativus [19] was “Active” each time. Also, the inhibition entry in the experiment with Hordeum vulgare [20], in the experiment with Hordeum vulgare [21] and in the experiment with Cucumis sativus [23] was “Active” in each case.
